This is an account of results in patent US7250414B2, “Diphenylmethyl compounds useful as muscarinic receptor antagonists” (Theravance, Inc., priority 2004, dated 2007).

In test [1] the target is T1, hM3 muscarinic receptor subtype (Homo sapiens, UniProt P20309).
T1 construct: expressed in transfected cells; crude membranes prepared in house
Put plainly: Radioligand binding assay ([3H]-NMS displacement). The settings on record: CHO cell membranes, [3H]-NMS at 1 nM, Cheng-Prusoff; read-out: Ki value for the M3 muscarinic receptor subtype. How it is done: A. Membrane Preparation from Cells Expressing hM1, hM2, hM3 and hM4 Muscarinic Receptor Subtypes
CHO cell lines stably expressing cloned human hM1, hM2, hM3 and hM4 muscarinic receptor subtypes, respectively, were grown to near confluency in medium consisting of HAM's F-12 supplemented with 10% FBS and 250 μg/mL Geneticin. The cells were grown in a 5% CO2, 37° C. incubator and lifted with 2 mM EDTA in dPBS. Cells were collected by 5 minute centrifugation at 650×g, and cell pellets were either stored frozen at −80° C. or membranes were prepared immediately. For membrane preparation, cell pellets were suspended in lysis buffer and homogenized with a Polytron PT-2100 tissue disrupter (Kinematica AG; 20 seconds×2 bursts). […] The protein concentration of the membrane suspension was determined by the method described in Lowry, O. et al., […] 193:265 (1951). […]
Radioligand binding assays were performed in 96-well microtiter plates in a total assay volume of 100 μL. […] Filter plates were rinsed three times with wash buffer (10 mM HEPES) to remove unbound radioactivity. […] The plates were then counted in a PerkinElmer Topcount liquid scintillation counter (PerkinElmer Inc., Wellesley, Mass.). Binding data were analyzed by nonlinear regression analysis with the GraphPad Prism Software package (GraphPad Software, Inc., San Diego, Calif.) using the one-site competition model. […]

The subject of test [2] is pilocarpine-evoked salivation. Put plainly: Inhalation guinea pig salivation assay. It counts as in vivo. How it is done:
Inhalation Guinea Pig Salivation Assay
Guinea pigs (Charles River, Wilmington, Mass.) weighing 200-350 g were acclimated to the in-house guinea pig colony for at least 3 days following arrival. Test compound or vehicle were dosed via inhalation (IH) over a 10 minute time period in a pie shaped dosing chamber (R&S Molds, San Carlos, Calif.). Test solutions were dissolved in sterile water and delivered using a nebulizer filled with 5.0 mL of dosing solution. Guinea pigs were restrained in the inhalation chamber for 30 minutes. During this time, guinea pigs were restricted to an area of approximately 110 sq. cm. […] Upon completion of nebulization, guinea pigs were evaluated at 1.5, 6, 12, 24, 48, or 72 hrs after treatment.
Guinea pigs were anesthetized one hour before testing with an intramuscular (IM) injection of a mixture of ketamine 43.75 mg/kg, xylazine 3.5 mg/kg, and acepromazine 1.05 mg/kg at an 0.88 mL/kg volume. […] Saliva was collected for 10 minutes, at which point the gauze pad was weighed and the difference in weight recorded to determine the amount of accumulated saliva (in mg). The mean amount of saliva collected for animals receiving the vehicle and each dose of test compound was calculated. […] Results were calculated using result means (n=3 or greater). Confidence intervals (95%) were calculated for each dose at each time point using two-way ANOVA. […]

T1 sequence (P20309 whole entry): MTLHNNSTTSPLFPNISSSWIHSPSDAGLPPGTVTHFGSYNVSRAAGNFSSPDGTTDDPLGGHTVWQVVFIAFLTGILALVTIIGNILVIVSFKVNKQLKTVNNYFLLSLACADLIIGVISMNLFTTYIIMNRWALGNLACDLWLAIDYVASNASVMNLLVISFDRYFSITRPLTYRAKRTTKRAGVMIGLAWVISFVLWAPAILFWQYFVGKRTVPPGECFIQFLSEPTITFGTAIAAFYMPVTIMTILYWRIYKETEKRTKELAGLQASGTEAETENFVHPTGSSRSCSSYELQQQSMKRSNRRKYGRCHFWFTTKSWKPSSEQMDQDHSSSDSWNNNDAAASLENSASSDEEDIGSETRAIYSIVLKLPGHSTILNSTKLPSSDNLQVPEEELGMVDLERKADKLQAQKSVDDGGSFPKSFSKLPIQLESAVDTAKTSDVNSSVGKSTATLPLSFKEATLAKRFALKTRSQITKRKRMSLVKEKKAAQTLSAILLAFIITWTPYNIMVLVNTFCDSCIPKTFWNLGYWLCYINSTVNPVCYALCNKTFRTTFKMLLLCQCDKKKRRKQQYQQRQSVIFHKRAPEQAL

Usually Ki stands for the dissociation constant of the complex between target and ligand, obtained from inhibition or displacement. On to `Cc1cnc(CNCCc2ccc(CCN3CC[C@@H](C(C(N)=O)(c4ccccc4)c4ccccc4)C3)cc2)cn1` [Example 16, 2-{(S)-1-[2-(4-{2-[(5-methylpyrazin-2-ylmethyl)amino]ethyl}phenyl)ethyl]pyrrolidin-3-yl}-2,2-diphenylacetamide], for which the Ki in test [1] came out at 110 nM.
For `CNCCc1ccc(CCN2CC[C@@H](C(C(N)=O)(c3ccccc3)c3ccccc3)C2)cc1` [Example 2, 2-((S)-1-{2-[4-(2-Methylaminoethyl)phenyl]ethyl}pyrrolidin-3-yl)-2,2-diphenyl-acetamide], in test [2], the “apparent lung selectivity index (ratio of anti-sialagogue ID50 to bronchoprotective ID50)” value was “greater than 15”.
